# Details: not given
row,Compound,solubility [mM]
1,C=C1C=CC(=O)O1,104
2,OC[C@H]1O[C@@H](n2cnc3cncnc32)[C@H](O)[C@@H]1O,396
3,O=C(O)CCC(=O)OOC(=O)CCC(=O)O,142
4,C#CC(C)(CC)OC(N)=O (stereo not given),113
5,O=C(NCN1CCOCC1)c1cnccn1,1500

# Continued, values first:
row,solubility [mM],Compound
1,24.5,CCCCOC(=O)C=Cc1ccccc1
2,811,COc1cc(O)c(C(=O)c2ccccc2)cc1S(=O)(=O)O
3,2,CCOCCOC(=O)C=Cc1ccc(OC)cc1

# Same assay, conditions: 22 °C
row,solubility [mM],Compound
1,4.78,CC(=O)NCc1c(I)c(NC(C)=O)c(I)c(C(=O)O)c1I

# Same assay, conditions: 25 °C
row,solubility [mM],Compound
1,10.7,NCCNc1cccc2ccccc12
2,0.207,O=C(N/N=C/c1ccccc1O)c1ccncc1
3,0.00751,CC(C)(C)CC(=O)OCC(=O)[C@@]12OC(C)(C)O[C@@H]1C[C@H]1[C@@H]3CCC4=CC(=O)C=C[C@]4(C)[C@@]3(F)[C@@H](O)C[C@@]12C
4,5.77,O=Nc1c(O)ccc2ccccc12
5,4.77,Nc1ccc(S(=O)(=O)Nc2ccnn2-c2ccccc2)cc1

row,Compound,solubility [mM]
1,O=NN(CCCl)C(=O)NCCCl,18.7

# From the OPERA property sets (Mansouri et al. 2018)
